Source: patent US20210395313A1, “PEPTIDE PAC1 ANTAGONISTS” (AMGEN INC., priority 2017, published 2021)
Where a SMILES comes first, the peptide text is derived from it. Bridges are numbered along the chain shown (N, C = ends). Where no end group is shown, it is not given here.

Molecular target: T1, rat PAC1 receptor (Rattus norvegicus, UniProt P32215)
T1 construct: SHSY-5Y (human neuroblastoma cell line) and RG-2 (rat glioma cell line) cells endogenously express human and rat PAC1 receptors, respectively; endogenous in cells; host or cells: RG-2 rat glioma cells
T1 sequence (P32215 20-523): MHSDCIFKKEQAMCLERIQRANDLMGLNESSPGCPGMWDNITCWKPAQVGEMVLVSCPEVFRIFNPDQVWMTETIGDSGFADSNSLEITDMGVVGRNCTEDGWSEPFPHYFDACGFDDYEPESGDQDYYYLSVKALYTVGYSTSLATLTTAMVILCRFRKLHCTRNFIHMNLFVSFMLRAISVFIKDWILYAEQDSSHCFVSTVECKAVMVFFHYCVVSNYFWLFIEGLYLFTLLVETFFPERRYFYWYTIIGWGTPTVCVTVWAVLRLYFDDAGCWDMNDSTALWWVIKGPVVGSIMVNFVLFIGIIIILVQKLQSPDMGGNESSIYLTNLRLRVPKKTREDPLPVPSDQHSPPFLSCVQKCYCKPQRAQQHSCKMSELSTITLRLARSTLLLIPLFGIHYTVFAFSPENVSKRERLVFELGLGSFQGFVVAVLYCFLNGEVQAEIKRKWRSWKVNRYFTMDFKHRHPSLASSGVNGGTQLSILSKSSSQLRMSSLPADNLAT
Test: LANCE Ultra cAMP accumulation antagonist assay in RG-2 cells;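 further: RG-2 rat glioma cells endogenously expressing PAC1, test peptide preincubated 30 min, then PAC1 agonist added at its EC80 for 15 min, cAMP accumulation read by LANCE Ultra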
Format: cell-based

“ACDATCQFRKAIDDCQKQAHHSNVPGSVFKACMKQKKKEFKAG-NH2 (disulfide 2-6, 15-32) [compound 184]” and “CDATCQFRKAIDDCQKQAHHSNVPGSVFKACMKQKKKEFKAGH (disulfide 1-5, 14-31) [compound 171]” fall in the same range of IC50: 0.01 to 1 nM for the first, 0.01 to 1 nM for the second.

`CC[C@H](C)[C@H](NC(=O)[C@H](C)NC(=O)[C@H](CCCCN)NC(=O)[C@H](CCCNC(=N)N)NC(=O)[C@H](Cc1ccccc1)NC(=O)[C@H](CCC(N)=O)NC(=O)[C@@H]1CSSC[C@H](N)C(=O)N[C@@H](CC(=O)O)C(=O)N[C@@H](C)C(=O)N[C@@H]([C@@H](C)O)C(=O)N1)C(=O)N[C@@H](CC(=O)O)C(=O)N[C@@H](CC(=O)O)C(=O)N[C@H]1CSSC[C@@H](C(=O)N[C@@H](CC(C)C)C(=O)N[C@@H](CCCCN)C(=O)N[C@@H](CCC(N)=O)C(=O)N[C@@H](CCCCN)C(=O)N[C@@H](CCCCN)C(=O)N[C@@H](CCCCN)C(=O)N[C@@H](CCC(=O)O)C(=O)N[C@@H](Cc2c[nH]c3ccccc23)C(=O)N[C@@H](CCCCN)C(=O)N[C@@H](C)C(=O)NCC(N)=O)NC(=O)[C@H](CO)NC(=O)[C@H](CCCCN)NC(=O)[C@H](Cc2ccccc2)NC(=O)[C@H](C(C)C)NC(=O)[C@H](CO)NC(=O)[C@H](CO)NC(=O)[C@H](Cc2c[nH]cn2)NC(=O)[C@H](Cc2ccc(O)cc2)NC(=O)[C@H](C)NC(=O)[C@H](CCC(N)=O)NC(=O)[C@H](CCCNC(=N)N)NC(=O)[C@H](C)NC1=O` [compound 436] (H-CDATCQFRKAIDDCARQAYHSSVFKSCLKQKKKEWKAG-NH2; disulfide 1-5, 14-27) and “GSCDATCQFRKAIDDCQKQAHHSNVPGSVFKACMKQKKKEFKAG-NH2 (disulfide 3-7, 16-33) [compound 185]” fall in the same range of IC50: 0.01 to 1 nM for the first, 0.01 to 1 nM for the second.

First: CDATCQFRKAIDDCAGTARHSNVPGSVFKACMKQKKKEWKAG-NH2 (disulfide 1-5, 14-31) [compound 446]
Second: CC[C@H](C)[C@H](NC(=O)[C@H](C)NC(=O)[C@H](CCCCN)NC(=O)[C@H](CCCNC(=N)N)NC(=O)[C@H](Cc1ccccc1)NC(=O)[C@H](CCC(N)=O)NC(=O)[C@@H]1CSSC[C@H](N)C(=O)N[C@@H](CC(=O)O)C(=O)N[C@@H](C)C(=O)N[C@@H]([C@@H](C)O)C(=O)N1)C(=O)N[C@@H](CC(=O)O)C(=O)N[C@@H](CC(=O)O)C(=O)N[C@H]1CSSC[C@@H](C(=O)N[C@@H](CCSC)C(=O)N[C@@H](CCCCN)C(=O)N[C@@H](CCC(N)=O)C(=O)N[C@@H](CCCCN)C(=O)N[C@@H](CCCCN)C(=O)N[C@@H](CCCCN)C(=O)N[C@@H](CCC(=O)O)C(=O)N[C@@H](Cc2c[nH]c3ccccc23)C(=O)N[C@@H](CCCCN)C(=O)N[C@@H](C)C(=O)NCC(N)=O)NC(=O)[C@H](C)NC(=O)[C@H](CCCCN)NC(=O)[C@H](Cc2ccccc2)NC(=O)[C@H](C(C)C)NC(=O)[C@H](CO)NC(=O)[C@H](CO)NC(=O)[C@H](Cc2c[nH]cn2)NC(=O)[C@H](Cc2ccc(O)cc2)NC(=O)[C@H](C)NC(=O)[C@H](CO)NC(=O)[C@H](CCCNC(=N)N)NC(=O)[C@H](C)NC1=O [compound 431] (H-CDATCQFRKAIDDCARSAYHSSVFKACMKQKKKEWKAG-NH2; disulfide 1-5, 14-27)
The IC50 of the first is higher: 1 to 100 nM for the first, less than 0.01 nM for the second. The second is the more potent here.

Compared with `CC[C@H](C)[C@H](NC(=O)[C@H](C)NC(=O)[C@H](CCCCN)NC(=O)[C@H](CCCNC(=N)N)NC(=O)[C@H](Cc1ccccc1)NC(=O)[C@H](CCC(N)=O)NC(=O)[C@@H]1CSSC[C@H](N)C(=O)N[C@@H](CC(=O)O)C(=O)N[C@@H](C)C(=O)N[C@@H]([C@@H](C)O)C(=O)N1)C(=O)N[C@@H](CC(=O)O)C(=O)N[C@@H](CC(=O)O)C(=O)N[C@H]1CSSC[C@@H](C(=O)N[C@@H](CC(C)C)C(=O)N[C@@H](CCCCN)C(=O)N[C@@H](CCC(N)=O)C(=O)N[C@@H](CCCCN)C(=O)N[C@@H](CCCCN)C(=O)N[C@@H](CCCCN)C(=O)N[C@@H](CCC(=O)O)C(=O)N[C@@H](Cc2c[nH]c3ccccc23)C(=O)N[C@@H](CCCCN)C(=O)N[C@@H](C)C(=O)NCC(N)=O)NC(=O)[C@H](C)NC(=O)[C@H](CCCCN)NC(=O)[C@H](Cc2ccccc2)NC(=O)[C@H](C(C)C)NC(=O)[C@H](CO)NC(=O)[C@H](CO)NC(=O)[C@H](Cc2c[nH]cn2)NC(=O)[C@H](Cc2ccc(O)cc2)NC(=O)[C@H](C)NC(=O)[C@H](CCC(N)=O)NC(=O)[C@H](CCCNC(=N)N)NC(=O)[C@H](C)NC1=O` [compound 435] (H-CDATCQFRKAIDDCARQAYHSSVFKACLKQKKKEWKAG-NH2; disulfide 1-5, 14-27), `CC[C@H](C)[C@H](NC(=O)[C@H](C)NC(=O)[C@H](CCCCN)NC(=O)[C@H](CCCNC(=N)N)NC(=O)[C@H](Cc1ccccc1)NC(=O)[C@H](CCC(N)=O)NC(=O)[C@@H]1CSSC[C@H](N)C(=O)N[C@@H](CC(=O)O)C(=O)N[C@@H](C)C(=O)N[C@@H]([C@@H](C)O)C(=O)N1)C(=O)N[C@@H](CC(=O)O)C(=O)N[C@@H](CC(=O)O)C(=O)N[C@H]1CSSC[C@@H](C(=O)N[C@@H](CCSC)C(=O)N[C@@H](CCCCN)C(=O)N[C@@H](CCC(N)=O)C(=O)N[C@@H](CCCCN)C(=O)N[C@@H](CCCCN)C(=O)N[C@@H](CCCCN)C(=O)N[C@@H](CCC(=O)O)C(=O)N[C@@H](Cc2c[nH]c3ccccc23)C(=O)N[C@@H](CCCCN)C(=O)N[C@@H](C)C(=O)NCC(N)=O)NC(=O)[C@H](C)NC(=O)[C@H](CCCCN)NC(=O)[C@H](Cc2ccccc2)NC(=O)[C@H](C(C)C)NC(=O)[C@H](CO)NC(=O)[C@H](CO)NC(=O)[C@H](Cc2c[nH]cn2)NC(=O)[C@H](Cc2ccc(O)cc2)NC(=O)[C@H](CO)NC(=O)[C@H](CCC(N)=O)NC(=O)[C@H](CCCNC(=N)N)NC(=O)[C@H](C)NC1=O` [compound 432] (H-CDATCQFRKAIDDCARQSYHSSVFKACMKQKKKEWKAG-NH2; disulfide 1-5, 14-27) is lower in IC50: 0.01 to 1 nM for the first, less than 0.01 nM for the second.

First: CDATCQFRKCIDDWQKQAHHSNVPGSVFKARMKQCKKEFKAG-NH2 (disulfide 1-5, 10-35) [compound 176]
Second: CC[C@H](C)[C@H](NC(=O)[C@H](C)NC(=O)[C@H](CCCCN)NC(=O)[C@H](CCCNC(=N)N)NC(=O)[C@H](Cc1ccccc1)NC(=O)[C@H](CCC(N)=O)NC(=O)[C@@H]1CSSC[C@H](N)C(=O)N[C@@H](CC(=O)O)C(=O)N[C@@H](C)C(=O)N[C@@H]([C@@H](C)O)C(=O)N1)C(=O)N[C@@H](CC(=O)O)C(=O)N[C@@H](CC(=O)O)C(=O)N[C@H]1CSSC[C@@H](C(=O)N[C@@H](CCSC)C(=O)N[C@@H](CCCCN)C(=O)N[C@@H](CCC(N)=O)C(=O)N[C@@H](CCCCN)C(=O)N[C@@H](CCCCN)C(=O)N[C@@H](CCCCN)C(=O)N[C@@H](CCC(=O)O)C(=O)N[C@@H](Cc2c[nH]c3ccccc23)C(=O)N[C@@H](CCCCN)C(=O)N[C@@H](C)C(=O)NCC(N)=O)NC(=O)[C@H](C)NC(=O)[C@H](CCCCN)NC(=O)[C@H](Cc2ccccc2)NC(=O)[C@H](C(C)C)NC(=O)[C@H](CO)NC(=O)[C@H](CO)NC(=O)[C@H](Cc2c[nH]cn2)NC(=O)[C@H](CCCCN)NC(=O)[C@H](C)NC(=O)[C@H](CCC(N)=O)NC(=O)[C@H](CCCNC(=N)N)NC(=O)[C@H](C)NC1=O [compound 434] (H-CDATCQFRKAIDDCARQAKHSSVFKACMKQKKKEWKAG-NH2; disulfide 1-5, 14-27)
The IC50 of the first is higher: 1 to 100 nM for the first, less than 0.01 nM for the second. The second is the more potent here.
